Results: patent US20260226006A1, “INDOLE COMPOUND, PREPARATION METHOD THEREFOR AND USE THEREOF” (SUZHOU MERNA THERAPEUTICS CO. LTD, priority 2023, published 2026)

Assays:
[1] = system: skin of hind limb toes of mice; assay: Chemotherapeutic drug-induced mouse models with hand-foot syndrome (Example 23); type: in vivo, ICR mice; details: compound 2b 3% ointment topical or nicotinamide 100 mg/kg oral; for expression level of cytokine IL-8 in skin tissues of hind limb toes: capecitabine model; for thickening of the epidermal layer and the stratum corneum in the skin tissues (pathological staining) / swelling of the toes caused by the modeling drugs: capecitabine or docetaxel model; for swelling of the toes caused by the modeling drugs: once daily 16 days; for expression level of cytokine IL-6 in skin tissues of hind limb toes: docetaxel model
Source text: After adaptive feeding for 7 days, SPF-grade ICR mice (male, 5-6 weeks old, with a body weight of approximately 35 g) were randomly divided into groups, including a blank control group (6 mice), a capecitabine modeling group (6 mice), a docetaxel modeling group (6 mice), a capecitabine+compound 2b group (6 mice), a docetaxel+compound 2b group (6 mice), a capecitabine+nicotinamide group (6 mice), and a docetaxel+nicotinamide group (6 mice). The groups were respectively administered corresponding modeling drugs by oral gavage (capecitabine at 200 mg/kg and docetaxel at 25 mg/kg) once daily, and the blank control group was administered an equivalent volume of normal saline. After administration with the chemotherapeutic drugs for 2 weeks, the compound ointments (at a compound content of 3%) used in Example 22 were respectively applied topically in the groups, or nicotinamide was orally administered (100 mg/kg) once daily continuously for 16 days.
(§1) Measurement of the degree of swelling of toes: The degree of swelling of hind limb toes of the mice was measured using a toe swelling tester (KW-7C, Nanjing Calvin Biotechnology Co., Ltd.) before administration with the modeling drugs, after administration with the modeling drugs for 2 weeks, and before sacrifice, respectively. Before measurement, ankle joints of hind paws of the mice were marked at same positions before administration, after administration for 2 weeks, and before sacrifice. During measurement, water was properly located at the same level as the marked positions, and numerical values were recorded after becoming stable.
(§2) Pathological staining of skin tissues: Skin tissue samples were selected from hind limb toes of the mice and placed in 4% paraformaldehyde for fixation at room temperature for 4 hours. Then, the tissues were taken out and rinsed with running water for several hours. The samples were subjected to dehydration treatment with 70%, 80%, and 90% ethanol solutions, followed by treatment with a mixed solution of equal amounts of absolute alcohol and xylene for 15 minutes, and then permeabilized twice with a xylene solution for 15 minutes each time until the samples became transparent. The samples were placed in a mixture of half xylene and half paraffin for soaking for 15 minutes, and then, paraffin I and paraffin II were added for wax penetration for one hour, respectively. After embedding with paraffin, the samples were sectioned, baked, dewaxed, and hydrated. Then, the hydrated sections were placed in a hematoxylin solution (ZSGB-BIO, article No. 23041001) for staining for 3 minutes, and a differentiation solution of hydrochloric acid in ethanol was added for differentiation for 15 seconds. After rinsing with water, a Scott bluing solution (Servicebio, article No. 20230801) was added for bluing for 15 seconds. After rinsing with running water, the sections were stained with an eosin solution (Solarbio, article No. 33535) for 3 minutes, rinsed with running water, dehydrated, permeabilized, sealed, and inspected under a microscope.
(§3) Immunohistochemical staining: After baking, dewaxing, and hydration, paraffin sections of skin tissues of hind limb toes of the mice were subjected to antigen retrieval using a 0.2 M citric acid buffer solution (containing 1.534 g of citric acid, 3.1 g of sodium citrate, and 100 mL of distilled water, pH 4.7). Endogenous […] was removed using 3% hydrogen peroxide (Shandong Annjet High-Tech Disinfection Technology Co., Ltd., article No. 20290902), and the sections were incubated at room temperature for 10 minutes and then fully rinsed with a PBS buffer solution (containing 8 g of NaCl, 0.2 g of KCl, 1.44 g of Na2HPO4, and 1 M HCl, pH 7.4). The sections were permeabilized with 0.5% Triron-X-100 (AmyJet Scientific, article No. A-CSH436-100 mL), respectively permeabilized with mouse anti-IL-1β and rabbit IL-8 for 10 minutes, and not permeabilized with rabbit anti-IL-6. […]

[2] = system: skin of hind limb toes of mice; assay: Kinase inhibitor-induced mouse models with hand-foot skin reaction (Example 24); type: in vivo, ICR mice; details: for expression level of cytokine IL-1β in skin tissues of hind limb toes / thickening of the epidermal layer and the stratum corneum in the skin tissues (pathological staining) / swelling of the toes caused by the modeling drugs: compound 2b 3% ointment topical or nicotinamide 100 mg/kg oral; for thickening of the epidermal layer and the stratum corneum in the skin tissues (pathological staining) / swelling of the toes caused by the modeling drugs: sorafenib or osimertinib model; for swelling of the toes caused by the modeling drugs: once daily 16 days; for degree of swelling of hind limb toes / epidermal layer and stratum corneum in skin tissues of hind limb toes (pathological staining): modeling drug oral for 14 days; for skin appearance of hind limb toes: modeling for 14 days, sorafenib 100 mg/kg or osimertinib 10 mg/kg oral
Source text: After adaptive feeding for 7 days, SPF-grade ICR mice (male, 5-6 weeks old, with a body weight of approximately 35 g) were randomly divided into groups, including a blank control group (6 mice), a sorafenib modeling group (6 mice), an osimertinib modeling group (6 mice), a sorafenib+compound 2b group (6 mice), an osimertinib+compound 2b group (6 mice), a sorafenib+nicotinamide group (6 mice), and an osimertinib+nicotinamide group (6 mice). The groups were respectively administered corresponding modeling drugs by oral gavage (sorafenib at 100 mg/kg and osimertinib at 10 mg/kg) once daily, and the blank control group was administered an equivalent volume of normal saline. After administration with the chemotherapeutic drugs for 2 weeks, the compound ointments (at a compound content of 3%) used in Example 22 were respectively applied topically in the groups or nicotinamide was orally administered (100 mg/kg) once daily continuously for 16 days.
as §1, §2, §3

HaCat cells = assay: m6A methylation level of drug-treated HaCat keratinocytes by nanopore sequencing (Example 14); type: cell-based, human; details: 50 nM drug, 24 hours
Protocol: 1*10^8 HaCat cells were seeded in culture dishes, into which 50 nM drugs (including sorafenib, capecitabine, docetaxel, and osimertinib) were added, respectively. The cells were cultured in an incubator containing 5% CO2 at 37° C. for 24 hours and washed with PBS after culture media were removed. Centrifugation was performed, the supernatant was discarded, and then, 400 μL of an RLT cell lysis buffer (QIAGEN, Cat. #79216) was added. A portion of samples were selected, into which 400 μL of 70% ethanol was added. The mixture was evenly stirred and then transferred to an RNeasy mini column, and RNA was extracted using an RNeasy mini kit (QIAGEN, Cat. #74104). 2 μL of an RNA sample was selected and dissolved in 98 μL of a 10 mM Tris-HCl buffer solution, and the absorbance at 260 nm was measured using a Nanodrop (Thermo Fisher Scientific) to determine the RNA concentration.
40 μg of an RNA sample was selected for enrichment of mRNA (PolyA+RNA) using an NEBNext Poly(A) mRNA magnetic isolation module (NEB, Cat. #E7490), and then, a 3′ end of the above enriched mRNA (PolyA+RNA) molecule was ligated with reverse transcription adapter RTA using a direct RNA sequencing kit (Oxford Nanopore Technologies, Cat. #SQK-RNA002). A reverse transcription reaction was performed with the mRNA (PolyA+RNA) molecule as a template to synthesize a complementary strand, a terminal end of the reverse transcription adapter RTA was ligated with a sequencing adapter (RNA adapter) to form a final sequencing library, and quantitative detection was performed using a Qubit™ dsDNA HS assay kit (Invitrogen, Cat. #LOT2133187).
After quality inspection of the library, the prepared sequencing library was loaded onto a PromethION flow cell chip (Oxford Nanopore Technologies, Cat. #FLO-MIN106D), and placed in a PromethION sequencer (Oxford Nanopore Technologies) for sequencing by selecting a matched sequencing mode. Basecalling was performed on sequencing data through guppy, and m6A methylation analysis was performed on original fast5 data.

| SMILES | expression level of cytokine IL-8 in skin tissues of hind limb toes [1] | thickening of the epidermal layer and the stratum corneum in the skin tissues (pathological staining) [1] | swelling of the toes caused by the modeling drugs [1] | expression level of cytokine IL-6 in skin tissues of hind limb toes [1] | expression level of cytokine IL-1β in skin tissues of hind limb toes ([2]; osimertinib model) | expression level of cytokine IL-1β in skin tissues of hind limb toes ([2]; sorafenib model) | thickening of the epidermal layer and the stratum corneum in the skin tissues (pathological staining) [2] | swelling of the toes caused by the modeling drugs [2] | m6A methylation level of HaCat cells, increase compared with blank control group (HaCat cells) | degree of swelling of hind limb toes [2] | epidermal layer and stratum corneum in skin tissues of hind limb toes (pathological staining) [2] | skin appearance of hind limb toes [2] | cytokine IL-1β in skin tissues of hind limb toes (immunohistochemistry) ([2]; osimertinib oral for 14 days) | cytokine IL-1β in skin tissues of hind limb toes (immunohistochemistry) ([2]; sorafenib oral for 14 days) |
| --- | --- | --- | --- | --- | --- | --- | --- | --- | --- | --- | --- | --- | --- | --- |
| NC(=O)[C@H]1CCCc2c1[nH]c1ccc(Cl)cc21 [Compound 2b, (S)-6-chloro-2,3,4,9-tetrahydro-1H-carbazole-1-carboxamide] | significantly decrease | effectively alleviate | significantly alleviate | significantly decrease | significantly decrease | significantly decrease | effectively alleviate | effectively alleviate |  |  |  |  |  |  |
| NC(=O)c1cccnc1 [Nicotinamide, nicotinamide] | does not have a significant impact | mildly alleviates | not observed that oral administration of the nicotinamide at 100 mg/kg significantly alleviates the swelling | does not have a significant impact | does not have a significant impact | does not have a significant impact | does not significantly alleviate | not observed that oral administration of the nicotinamide at 100 mg/kg significantly alleviates the swelling |  |  |  |  |  |  |
| C=CC(=O)Nc1cc(Nc2nccc(-c3cn(C)c4ccccc34)n2)c(OC)cc1N(C)CCN(C)C [Osimertinib, osimertinib, reference compound] |  |  |  |  |  |  |  |  | 5.13 times | significant swelling | significantly thickened | obvious erythema and rhagades | significantly increased |  |
| CNC(=O)c1cc(Oc2ccc(NC(=O)Nc3ccc(Cl)c(C(F)(F)F)c3)cc2)ccn1 [Sorafenib, sorafenib, reference compound] |  |  |  |  |  |  |  |  | 5.05 times | significant swelling | significantly thickened | obvious erythema and rhagades |  | significantly increased |
